Patent publication US20220307021A1, “A NEUROPILIN ANTAGONIST IN COMBINATION WITH A P38ALPHA-KINASE INHIBITOR FOR THE TREATMENT OF CANCER” (INSERM (Institut National de la santé et de la Recherche …, priority 2019, published 2022)

Experiments:
[1] = target: selected panel of 40 protein kinases; assay: Protein kinase profiling (Eurofins); format: biochemical; settings: 1 μM of each NRPa, relative to DMSO control
Procedure: NRPa-47 and NRPa-48 specificity profiling assays were carried out at Eurofins Pharma Discovery Services (Dundee, UK) for Protein Kinase Profiling against a selected panel of 40 protein kinases. Results of protein kinases assayed at 1 μM of each NRPa are presented as a percentage of kinase activity in DMSO control reactions.

[2] = tested on: MDA-MB-231; settings: read-out: half maximal inhibitory anti-proliferative concentration (IC50); MDA-MB-231, previously reported; cited from earlier work
[3] = tested on: JNK-1/-2/-3/-pan; assay: Human phosphokinase proteome profiler array, MDA-MB-231; format: cell-based; settings: MDA-MB-231, compound at IC50, 10 and 60 minutes
Procedure: (§1) MDA-MB-231 cells were incubated in the presence or absence of NRPa-47 or NRPa-48 compounds (IC50) and protein lysates were prepared and quantified as previously described. Biochemical signaling detection was evaluated by using human proteome profiler array (human phosphokinase array and human apoptosis array) according to the manufacturer's instructions (R&D systems, France). Briefly, capture and control antibodies were spotted in duplicate on nitrocellulose membranes. Cellular extracts were incubated overnight on membrane, washed to remove unbound proteins, followed by incubation with a cocktail of biotinylated detection antibodies. Streptavidin-HRP and chemiluminescent detection reagents were applied, and the signal intensity corresponding to the amount of protein bound was measured at each capture spot using ImageJ software.

[4] = tested on: p38β/p38γ/p38δ; assay: as above; format: cell-based; settings: MDA-MB-231, compound at IC50, 10 and 60 minutes
Procedure: as §1

[5] = tested on: ERK-1/-2; assay: as above; format: cell-based; settings: MDA-MB-231, compound at IC50, 10 and 60 minutes
Procedure: as §1

[6] = tested on: p38α; assay: as above; format: cell-based; settings: MDA-MB-231, compound at IC50, 10 and 60 minutes
Procedure: as §1

[7] = tested on: AKT-1/-2/-3/-pan; assay: as above; format: cell-based; settings: MDA-MB-231, compound at IC50, 10 and 60 minutes
Procedure: as §1

[8] = target: T1, VEGF-A165/NRP-1 (Homo sapiens, UniProt O14786); settings: previously described [15]; cited from earlier work
T1 sequence (O14786 22-856 limits assumed): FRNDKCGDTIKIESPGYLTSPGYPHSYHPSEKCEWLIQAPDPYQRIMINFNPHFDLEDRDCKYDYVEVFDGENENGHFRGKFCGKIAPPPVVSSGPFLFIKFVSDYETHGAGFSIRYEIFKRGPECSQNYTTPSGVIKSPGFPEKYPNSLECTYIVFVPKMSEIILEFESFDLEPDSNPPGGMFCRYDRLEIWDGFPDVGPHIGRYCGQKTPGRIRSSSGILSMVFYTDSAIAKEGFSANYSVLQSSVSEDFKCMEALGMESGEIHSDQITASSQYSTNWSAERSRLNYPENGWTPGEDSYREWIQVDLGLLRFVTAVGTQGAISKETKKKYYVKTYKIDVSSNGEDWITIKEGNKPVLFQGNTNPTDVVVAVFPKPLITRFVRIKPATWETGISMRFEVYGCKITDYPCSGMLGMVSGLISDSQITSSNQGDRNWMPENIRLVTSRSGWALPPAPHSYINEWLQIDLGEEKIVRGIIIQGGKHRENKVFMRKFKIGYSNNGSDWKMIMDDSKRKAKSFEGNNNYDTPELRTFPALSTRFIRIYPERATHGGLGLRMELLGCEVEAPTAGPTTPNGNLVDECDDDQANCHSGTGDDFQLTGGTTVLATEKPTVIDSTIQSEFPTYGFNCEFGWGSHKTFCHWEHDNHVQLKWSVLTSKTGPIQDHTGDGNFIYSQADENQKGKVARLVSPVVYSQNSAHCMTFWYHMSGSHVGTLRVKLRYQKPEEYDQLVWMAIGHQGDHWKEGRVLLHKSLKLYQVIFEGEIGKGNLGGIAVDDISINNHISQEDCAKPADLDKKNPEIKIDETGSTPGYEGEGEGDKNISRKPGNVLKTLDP

[9] = tested on: VEGF-A165 mRNA; assay: RT-PCR of VEGF-A165 mRNA in MDA-MB-231; format: cell-based, human; settings: MDA-MB-231, time dependent, maximum effect at 60 minutes
Procedure: (§2) MDA-MB-231 RNA was extracted with NucleoSpinRNA II kit (Macherey-Nagel, France) and quantified using Nanodrop (ND-1000 spectrophotometer). 1 μg of each RNA sample was reverse-transcripted into cDNA using iScript cDNA Synthesis Kit (Bio-Rad, France) following the manufacturer's instructions. PCR amplification was performed in reaction mixture (25 μL) containing 200 μM of each dNTP, 1 μg of cDNA, 1 μM of primers and 0.625 U of GoTaq DNA Polymerase (Promega, France) with 45 s of denaturation at 95° C., 45 s of annealing at 60° C. and 1 min of extension at 72° C. for 30 cycles. PCR products were separated by 1% agarose gel electrophoresis, stained with ethidium bromide (Sigma, Germany) and analyzed using Gel Doc 2000 System (Bio-Rad, France).

[10] = tested on: HIF-1α mRNA; assay: RT-PCR of HIF-1α mRNA in MDA-MB-231; format: cell-based, human; settings: MDA-MB-231, time dependent, maximum effect at 60 minutes
Procedure: as §2

[11] = tested on: MDA-MB-231; assay: Human apoptosis proteome profiler array, MDA-MB-231; format: cell-based; settings: for HIF-1α expression: MDA-MB-231, compound at IC50
Procedure: as §1

[12] = tested on: RSK-1/RSK-2, MSK-2, HSP-27, GSK-3, p70S6K; assay: Human phosphokinase proteome profiler array, MDA-MB-231: downstream kinase substrates; format: cell-based; settings: MDA-MB-231, compound at IC50, 10 and 60 minutes
Procedure: as §1

[13] = tested on: MDA-MB-231-xenografted NOG mice; assay: In vivo xenografted-tumor mouse model
Procedure: Protocol was approved by the INSERM Institutional Care and Use Committee according to the European Communities Council Directive. NOD/scid/IL-2Rγ−/− (NOG) female mice were bred and housed in pathogen-free conditions in accordance with the Federation of European Animal Associations (FELSA) guidelines. […]. […] Tumor growth and body weight were measured every three days during the treatment. Mice were weighed regularly to assess the toxicity of the treatment and the tumors were measured with calipers (width×width×length×Pi/6) to determine growth.

[14] = MDA-MB-231, compound at IC50, 60 minutes and 48 hours

SMILES | kinase activity of 40-selected kinases in vitro [1] | IC50 [2] [µM] | JNK-1/-2/-3/-pan phosphorylation [3] | p38β/p38γ/p38δ phosphorylation [4] | ERK-1/-2 phosphorylation [5] | p38α phosphorylation [6] | AKT-1/-2/-3/-pan phosphorylation [7] | HIF-1α expression [11] | anti-apoptotic proteins (Bcl-2, Bcl-x, cIAP-1, cIAP-2, XIAP, Survivin, Livin, Clusterin) and heat shock proteins (HSP-27/-60/-70) level [11, 14] | caspase-3 cleavage [11, 14] | catalase (oxidative stress) [11, 14] | cell cycle protein expression (p21, p27) and phosphorylation of Rad-17 [11, 14] | heme oxygenase HO-1/HMOX1/HSP32 and HO-2/HMOX2 expression [11, 14] | p53 phosphorylation sites [11, 14] | pro-apoptotic proteins (Bad, Bax, SMAC/Diablo, HTRA2/Omi, cytochrome c) level [11, 14] | GSK-3 phosphorylation [12] | HSP27 phosphorylation [12] | MSK2 phosphorylation [12] | RSK-1 phosphorylation [12] | RSK-2 phosphorylation [12] | also measured
Cc1ccc(-c2nc3ccccc3[nH]2)cc1NC(=S)NC(=O)c1ccc2c(c1)OCCO2 [NRPa-47, N-[5-(1H-benzimidazol-2-yl)-2-methylphenyl]-N′-(2,3-dihydro-1,4-benzodioxin-6-ylcarbonyl)thiourea] | None of these were significantly affected | 0.6 | significant hyper-phosphorylations | no significant variation | significant hyper-phosphorylations | significantly decreased | up-regulated | inhibit HIF-1α expression | significantly reduced | induction | catalase induction | reduction | both reduced | inhibited | rapid decrease | affected | dephosphorylated | dephosphorylated | remained unchanged | increase in phosphorylation | VEGF-A165/NRP-1 binding [8]: inhibited VEGF-A165/NRP-1 binding; VEGF-A165 mRNA expression [9]: reduced; HIF-1α mRNA expression [10]: reduced; p70S6K phosphorylation [12]: up-regulated
O=C(NC(=S)Nc1cccc(-c2nc3ccccc3[nH]2)c1)c1ccc2c(c1)OCCO2 [NRPa-48, N-[3-(1H-benzimidazol-2-yl)phenyl]-N′-(2,3-dihydro-1,4-benzodioxin-6-ylcarbonyl)thiourea] | None of these were significantly affected | 0.4 | significantly inhibited | significantly inhibited | significantly inhibited | significantly inhibited | inhibited from 10 minutes until 60 minutes | inhibit HIF-1α expression | down-modulated | induction | high level of catalase | reduction | both reduced | inhibited | significantly decreased | inhibited in a time dependent manner | inhibited in a time dependent manner | inhibited in a time dependent manner | inhibited in a time dependent manner | inhibited in a time dependent manner | body weight of treated animals ([13]; 50 mg/kg by force-feeding, three times a week): did not show any loss of weight; treated mice alive at the end of treatment ([13]; 50 mg/kg force-feeding): 62%; tumor size reduction compared to the reference group ([13]; 50 mg/kg force-feeding, Day-38 (21 days after starting treatment)): approximately 29%; tumor size reduction ([13]; 50 mg/kg force-feeding, Day-45): 34%; median survival ([13]; 50 mg/kg force-feeding, control group 35 days): over 56 days; PON-2 level [11, 14]: remained unchanged
